Measured values published in PubChem BioAssay (NCI).
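All cell lines were grown in 96-well plates and treated with compound for 48 hours. TGI: concentration producing complete growth inhibition.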

How the values were obtained:
Assay in all cases: NCI tumour cell line growth inhibition, 48 h
[1] = system: 786-0 renal
[2] = system: A549 NSCLC
[3] = system: BT-549 breast
[4] = system: CAKI-1 renal
[5] = system: COLO 205 colon
[6] = system: DU-145 prostate
[7] = system: EKVX NSCLC
[8] = system: HCT-116 colon
[9] = system: HCT-15 colon
[10] = system: HL-60(TB) leukemia
[11] = system: HOP-62 NSCLC
[12] = system: HS 578T breast
[13] = system: HT29 colon
[14] = system: IGROV1 ovarian
[15] = system: K-562 leukemia
[16] = system: KM12 colon
[17] = system: LOX IMVI melanoma
[18] = system: M14 melanoma
[19] = system: MALME-3M melanoma
[20] = system: MCF7 breast
[21] = system: MDA-MB-231 breast
[22] = system: MDA-MB-435
[23] = system: MDA-N
[24] = system: MOLT-4 leukemia
[25] = system: NCI-H226 lung
[26] = system: NCI-H23 lung
[27] = system: NCI-H460 lung
[28] = system: NCI-H522 lung
[29] = system: NCI/ADR-RES ovarian
[30] = system: OVCAR-3 ovarian
[31] = system: OVCAR-4 ovarian
[32] = system: OVCAR-8 ovarian
[33] = system: PC-3 prostate
[34] = system: RPMI-8226 leukemia
[35] = system: RXF 393 renal
[36] = system: SF-268 CNS
[37] = system: SF-295 CNS
[38] = system: SF-539 CNS
[39] = system: SK-MEL-2 melanoma
[40] = system: SK-MEL-28 melanoma
[41] = system: SK-MEL-5 melanoma
[42] = system: SK-OV-3 ovarian
[43] = system: SN12C renal
[44] = system: SNB-19 CNS
[45] = system: SNB-75 CNS
[46] = system: SR leukemia
[47] = system: SW-620 colon
[48] = system: T-47D breast
[49] = system: TK-10 renal
[50] = system: U251 CNS
[51] = system: UACC-257 melanoma
[52] = system: UACC-62 melanoma
[53] = system: UO-31 renal
[54] = system: A498 renal
[55] = system: ACHN renal
[56] = system: CCRF-CEM leukemia
[57] = system: HCC-2998 colon
[58] = system: HOP-92 NSCLC
[59] = system: OVCAR-5 ovarian

N#Cc1sc2c(c1OC(=O)c1cccs1)c(=O)n(-c1ccccc1)c(=S)n2-c1ccccc1
TGI [1]: 90.6 µM
TGI [2]: > 100 µM
TGI [3]: 77.8 µM
TGI [4]: > 100 µM
TGI [5]: 42.5 µM
TGI [6]: > 100 µM
TGI [7]: 89.9 µM
TGI [8]: 34.2 µM
TGI [9]: 40 µM
TGI [10]: 47.5 µM
TGI [11]: 49.5 µM
TGI [12]: 43.6 µM
TGI [13]: > 100 µM
TGI [14]: 39.4 µM
TGI [15]: 83.4 µM
TGI [16]: 43.6 µM
TGI [17]: 54.2 µM
TGI [18]: 38.2 µM
TGI [19]: 40.7 µM
TGI [20]: 49.7 µM
TGI [21]: 45.1 µM
TGI [22]: > 100 µM
TGI [23]: 68.5 µM
TGI [24]: 62.3 µM
TGI [25]: 43.4 µM
TGI [26]: 93.5 µM
TGI [27]: > 100 µM
TGI [28]: 34.3 µM
TGI [29]: 50.1 µM
TGI [30]: > 100 µM
TGI [31]: 73.5 µM
TGI [32]: 81.6 µM
TGI [33]: 64.6 µM
TGI [34]: 49.6 µM
TGI [35]: 31.9 µM
TGI [36]: 86 µM
TGI [37]: 55.8 µM
TGI [38]: 49.6 µM
TGI [39]: 51 µM
TGI [40]: 61.6 µM
TGI [41]: 29.5 µM
TGI [42]: > 100 µM
TGI [43]: 47.2 µM
TGI [44]: > 100 µM
TGI [45]: > 100 µM
TGI [46]: 71.4 µM
TGI [47]: 84.6 µM
TGI [48]: 34.1 µM
TGI [49]: > 100 µM
TGI [50]: 55.5 µM
TGI [51]: > 100 µM
TGI [52]: 35.2 µM
TGI [53]: 32.7 µM

N#Cc1c(Cl)c2ccccc2n2c1nc1ccccc12
TGI [1]: 51 µM
TGI [54]: > 100 µM
TGI [2]: > 100 µM
TGI [55]: 32.6 µM
TGI [3]: > 100 µM
TGI [4]: 51.4 µM
TGI [56]: 47.2 µM
TGI [5]: 41.9 µM
TGI [6]: 80.4 µM
TGI [7]: 70 µM
TGI [57]: 40.1 µM
TGI [8]: 33.5 µM
TGI [9]: 33.1 µM
TGI [10]: 31 µM
TGI [11]: > 100 µM
TGI [58]: 48.2 µM
TGI [12]: 63.1 µM
TGI [13]: 35.7 µM
TGI [14]: 38.7 µM
TGI [15]: > 100 µM
TGI [16]: > 100 µM
TGI [17]: 34.6 µM
TGI [18]: 69.8 µM
TGI [20]: > 100 µM
TGI [21]: 74 µM
TGI [22]: > 100 µM
TGI [23]: > 100 µM
TGI [24]: 75.9 µM
TGI [25]: 59 µM
TGI [26]: 53.8 µM
TGI [27]: > 100 µM
TGI [29]: 65.6 µM
TGI [30]: > 100 µM
TGI [31]: 84 µM
TGI [59]: > 100 µM
TGI [32]: 48.3 µM
TGI [33]: > 100 µM
TGI [34]: 72.7 µM
TGI [35]: 49.3 µM
TGI [36]: 83.7 µM
TGI [37]: > 100 µM
TGI [38]: 42.8 µM
TGI [39]: > 100 µM
TGI [40]: > 100 µM
TGI [42]: > 100 µM
TGI [43]: 67 µM
TGI [44]: > 100 µM
TGI [45]: > 100 µM
TGI [46]: 77.7 µM
TGI [47]: > 100 µM
TGI [48]: 46.8 µM
TGI [49]: 36.5 µM
TGI [50]: > 100 µM
TGI [51]: > 100 µM
TGI [52]: > 100 µM
TGI [53]: 38.2 µM

NC(N)=N/N=C/c1c(-c2ccc([N+](=O)[O-])cc2)nc2n1CCS2
TGI [1]: 20.9 µM
TGI [54]: 42 µM
TGI [2]: 36.2 µM
TGI [55]: 30.7 µM
TGI [3]: 34.2 µM
TGI [4]: 34.4 µM
TGI [56]: 11.8 µM
TGI [5]: 7.8 µM
TGI [6]: 28.1 µM
TGI [7]: 37.8 µM
TGI [57]: 19.7 µM
TGI [8]: 23 µM
TGI [9]: 36.7 µM
TGI [10]: 25.1 µM
TGI [11]: 61.5 µM
TGI [58]: 40.5 µM
TGI [12]: 39.1 µM
TGI [13]: 31 µM
TGI [14]: 38.6 µM
TGI [15]: 22.6 µM
TGI [16]: 21.7 µM
TGI [17]: 35 µM
TGI [18]: 30.2 µM
TGI [19]: 36.6 µM
TGI [20]: 30.3 µM
TGI [21]: 16 µM
TGI [22]: 43.5 µM
TGI [23]: 26.5 µM
TGI [24]: > 33 µM
TGI [25]: 42.9 µM
TGI [26]: 31.3 µM
TGI [27]: 32.3 µM
TGI [28]: 29.4 µM
TGI [29]: > 100 µM
TGI [30]: 41.3 µM
TGI [31]: 27.7 µM
TGI [59]: 28 µM
TGI [32]: 29.2 µM
TGI [33]: 27.7 µM
TGI [34]: > 63.3 µM
TGI [35]: 23.4 µM
TGI [36]: 25.4 µM
TGI [37]: 36.7 µM
TGI [38]: 32.3 µM
TGI [39]: 22 µM
TGI [40]: 34.8 µM
TGI [41]: 32 µM
TGI [42]: 43.2 µM
TGI [43]: 19.2 µM
TGI [44]: 11.4 µM
TGI [45]: 14.5 µM
TGI [46]: 5.71 µM
TGI [47]: 7.33 µM
TGI [48]: 16.3 µM
TGI [49]: 31.5 µM
TGI [50]: 6.49 µM
TGI [51]: 35.6 µM
TGI [52]: 35.3 µM
TGI [53]: 30.2 µM

C/C(=N/O)c1cccc(Nc2nc3ccc(Cl)cc3c3[nH]c4ccccc4c23)c1
TGI [1]: 5.22 µM
TGI [2]: 5.13 µM
TGI [55]: 4.5 µM
TGI [3]: 11.6 µM
TGI [4]: 6.11 µM
TGI [5]: 4.15 µM
TGI [6]: 4.41 µM
TGI [8]: 2.66 µM
TGI [9]: 5.03 µM
TGI [10]: 6.78 µM
TGI [11]: 6.99 µM
TGI [12]: 7.09 µM
TGI [13]: 5.36 µM
TGI [14]: 11.5 µM
TGI [15]: > 100 µM
TGI [16]: 3.79 µM
TGI [17]: 5.73 µM
TGI [18]: 3.54 µM
TGI [20]: 2.75 µM
TGI [21]: 9.32 µM
TGI [22]: 3.99 µM
TGI [23]: 4.05 µM
TGI [24]: 5.97 µM
TGI [25]: 9.82 µM
TGI [26]: 4.24 µM
TGI [27]: 4.29 µM
TGI [28]: 3.26 µM
TGI [29]: 6.26 µM
TGI [30]: 4.65 µM
TGI [31]: 4.82 µM
TGI [59]: 6.83 µM
TGI [32]: 7.77 µM
TGI [33]: 4.7 µM
TGI [34]: 3.52 µM
TGI [35]: 3.27 µM
TGI [36]: 5.15 µM
TGI [37]: 4.32 µM
TGI [38]: 12.3 µM
TGI [39]: 3.88 µM
TGI [40]: 5.25 µM
TGI [41]: 2.56 µM
TGI [42]: 13.6 µM
TGI [43]: 9.53 µM
TGI [44]: 12 µM
TGI [45]: 3.36 µM
TGI [46]: > 100 µM
TGI [47]: 5.03 µM
TGI [48]: 3.5 µM
TGI [49]: 6.51 µM
TGI [50]: 9.94 µM
TGI [51]: 12.1 µM
TGI [52]: 3.94 µM
TGI [53]: 8.86 µM
